Laboratory results published in patent EP0162545A2, “Enhanced bioconversion processes” (BETZ EUROPE, INC., priority 1984, dated 1985).

How the values were obtained:
Format in all cases: cell-based
Klebsiella pneumoniae = test: microbe, parasite or virus in culture
Description: The first series of experiments involved the measurement of the amount of C02 evolved from aerobically growing cultures of the representative organism Klebsiella in the presence and absence of uncoupling agents. The known uncouplers 2, 4 dinitrophenol (DNP) and carbonyl cyanide m-chlorophenyl hydrazone (CCCP) were tested along with bis (tricholoromethyl) sulfone (TCMS) and beta-bromo-beta-nitrostyrene (BNS). It can be seen from the data that CCCP caused large increases in C02 evolution over the untreated controls at all concentrations used, with the largest increase (29%) at 5 µg/mL (24.4 uM). […] Bacterial counts also reflected the lack of uncoupling activity. […] Largest increase in C02 blowoff came at 50 ppm (32%). BNS gave a mixed pattern as opposed to those of DNP and CCCP. […] Even at 10 µg/mL, the bacterial count was reduced ~ 50% while still giving greater C02 blowoff than control cultures.
The procedure utilized to perform the first series of experiments was as follows: • Sealed vials containing 8 mL of minimal salts medium (Composition: K2HPO4-39, KH2PO4-lg, MgSO4-0.2g, (NN4)2SO4^-1g, D-glucose-5g (optional) in 1 liter. Autoclave and adjust pH to 6.8) lacking any carbon source were each injected with 1 mL of a suspension of Klebsiella pneumoniae. (Klebsiella was grown overnight, shaken at 37°C, in minimal salts medium containing glucose to a heavy cell suspension. The cells were centrifuged at 10,000 g and resuspended to a turbidity of 150 Klett units [Klett-Summerson photometer, #42 blue filter) in minimal salts medium [MSM], no glucose. These cells were again centrifuged, and resuspended in MSM at 1/10 the volume used previously. This 10X cell suspension was used as the standard inoculum for the vials.) The vials were- simultaneously injected with 1 mL of a 1 µ Ci/mL solution of ^14C-U-D glucose and the appropriate concentration of material to be tested. The compounds tested were fed at concentrations of […]. Controls received no test material and all vials were shaken during the course of the experiments at 37°C. Vials were read for C02 blowoff at the times indicated on the appropriate Tables. Standard bacterial counts were done on each vial after the end of each experimental series. [formula] [formula] [formula] [formula]

Klebsiella [1] = test: Total organic carbon removal in nutrient broth shake flasks; conditions: for % Org. Carbon Removal / Tot. Inorg. Carbon / Tot. Org. Carbon / Total Carbon: 5 Hours
Description: (§1) Experiments to look at the above conclusions in depth were performed. In these experiments, cultures of Klebsiella were challenged with various concentrations of BNS and the effects on C02 evolution from glucose, viability, TOC (Total Organic Carbon), TIC (Total Inorganic Carbon) production, removal, and DO (Dissolved Oxygen) removal were determined. Concentrations of BNS from 0.05 to 100 µg/mL were used. […] CO2 evolution decreased after 5 gg/mL. […] The viability dropped off after that with 99% inhibition at concentrations somewhere between 10 - 20 µg/mL. Organic carbon removal gave the most puzzling pattern. […] CO2 was produced, however, as reflected by the C02 blowoff experiments and the TIC data. The organic carbon being oxidized (removed) must have been cancelled out by an organic carbon addition caused by limited bacterial lysis. This phenomenon was investigated again. […] It appeared that 5 ppm BNS would be the maximum concentration that could be used for the desired effect, with the majority of favorable results occurring in the 0.05 - 2 ppm range.
The experiments coordinating the measurements of C02 evolution, TOC reduction, viable count, and dissolved oxygen (DO) reduction were performed as follows: C02 evolution by Klebsiella was measured as described previously using a narrowed set of BNS concentrations. At the same time, Klebsiella cells grown overnight in nutrient broth were standardized into an inoculum of 250 Klett units. These cells were used to inoculate 19 mL quantities of fresh nutrient broth (1 mL inoculum) in baffled shake flasks. These shake flasks were placed into water bath shakers at 37°C and allowed to shake for 5 hours. Concentrations of BNS equivalent to the C02 blowoff experiment were added to the flasks at the beginning of the experiment. Controls containing no BNS were included for comparisons. Total organic carbon measurements were taken after 5 hours incubation. Viable counts were done at 1 hour, 3 hours, and 5 hours. A parallel experiment was performed using the same setup except that after BNS additions, the flasks were shaken for 30 minutes and then held stationary. DO measurements were taken at 5 hours incubation with the use of a YSI Model 54A oxygen meter.

Klebsiella [2] = tested on: Klebsiella
Description: as §1
At 0.05 µg/mL level, TOC removal was equivalent to the untreated control. When BNS concentrations of 0.5 µg/mL were used, TOC removal ceased and in the second series of experiments, TOC levels increased sharply at 0.5 - 2 µg/mL concentrations of BNS. Similar results were obtained when BNS was used to treat bacteria growing in the glucose salts medium. No increases in TOC removal were seen. The TOC concentration increased rapidly at BNS concentration of 0.5 - 2 ppm only to fall back to control levels at 5 ppm. The cells then added TOC to the medium again from 5 - 1000 µg/mL concentrations of BNS. […]
(§2) The experiments coordinating the measurements of C02 evolution, TOC reduction, viable count, and dissolved oxygen (DO) reduction were performed as follows: C02 evolution by Klebsiella was measured as described previously using a narrowed set of BNS concentrations. […] These cells were used to inoculate 19 mL quantities of fresh nutrient broth (1 mL inoculum) in baffled shake flasks. […]

Klebsiella [3] = test: Dissolved oxygen removal in nutrient broth; conditions: 5 hours
Description: Experiments to look at the above conclusions in depth were performed. In these experiments, cultures of Klebsiella were challenged with various concentrations of BNS and the effects on C02 evolution from glucose, viability, TOC (Total Organic Carbon), TIC (Total Inorganic Carbon) production, removal, and DO (Dissolved Oxygen) removal were determined. Concentrations of BNS from 0.05 to 100 µg/mL were used. […] CO2 evolution decreased after 5 gg/mL. […] The viability dropped off after that with 99% inhibition at concentrations somewhere between 10 - 20 µg/mL. Organic carbon removal gave the most puzzling pattern. […] CO2 was produced, however, as reflected by the C02 blowoff experiments and the TIC data. The organic carbon being oxidized (removed) must have been cancelled out by an organic carbon addition caused by limited bacterial lysis. This phenomenon was investigated again. […]
as §2

With `O=[N+]([O-])C(Br)=Cc1ccccc1` [BNS, beta-bromo-beta-nitrostyrene] the “concentrations at which toxic properties become evident” value (Klebsiella pneumoniae) was over 5.0 µg/mL, the activation at 1 µg/mL (Klebsiella pneumoniae; Klebsiella pneumoniae, 1.0 µ/mL, 14C-glucose, read-out: largest increase in C02 blowoff) was 13% and the “% Org. Carbon Removal” value (Klebsiella [1]; BNS 0.05 µg/mL) was 37%. The “Tot. Inorg. Carbon” value (Klebsiella [1]; BNS 0.05 µg/mL) was 145 µg/mL, the “Tot. Org. Carbon” value (Klebsiella [1]; BNS 0.05 µg/mL) was 2,205 µg/mL and the “Total Carbon” value (Klebsiella [1]; BNS 0.05 µg/mL) was 2,350 µg/mL. For the same compound, the “% Org. Carbon Removal” value (Klebsiella [1]; BNS 0.1 µg/mL) was “+9%”, the “Tot. Inorg. Carbon” value (Klebsiella [1]; BNS 0.1 µg/mL) was 155 µg/mL and the “Tot. Org. Carbon” value (Klebsiella [1]; BNS 0.1 µg/mL) was 3,845 µg/mL. The “Total Carbon” value (Klebsiella [1]; BNS 0.1 µg/mL) was 4,000 µg/mL, the “% Org. Carbon Removal” value (Klebsiella [1]; BNS 0.5 µg/mL) was 1% and the “Tot. Inorg. Carbon” value (Klebsiella [1]; BNS 0.5 µg/mL) was 145 µg/mL. For the same compound, the “Tot. Org. Carbon” value (Klebsiella [1]; BNS 0.5 µg/mL) was 3,455 µg/mL, the “Total Carbon” value (Klebsiella [1]; BNS 0.5 µg/mL) was 3,600 µg/mL and the “% Org. Carbon Removal” value (Klebsiella [1]; BNS 1.0 µg/mL) was 6%. For the same compound, the “Tot. Inorg. Carbon” value (Klebsiella [1]; BNS 1.0 µg/mL) was 120 µg/mL, the “Tot. Org. Carbon” value (Klebsiella [1]; BNS 1.0 µg/mL) was 3,280 µg/mL and the “Total Carbon” value (Klebsiella [1]; BNS 1.0 µg/mL) was 3,400 µg/mL. For the same compound, the “% Org. Carbon Removal” value (Klebsiella [1]; BNS 2 µg/mL) was “+16%”, the “Tot. Inorg. Carbon” value (Klebsiella [1]; BNS 2 µg/mL) was 96 µg/mL and the “Tot. Org. Carbon” value (Klebsiella [1]; BNS 2 µg/mL) was 4,054 µg/mL. For the same compound, the “Total Carbon” value (Klebsiella [1]; BNS 2 µg/mL) was 4,150 µg/mL, the “% Org. Carbon Removal” value (Klebsiella [1]; BNS 5 µg/mL) was “+35%” and the “Tot. Inorg. Carbon” value (Klebsiella [1]; BNS 5 µg/mL) was 63 µg/mL. For the same compound, the “Tot. Org. Carbon” value (Klebsiella [1]; BNS 5 µg/mL) was 4,737 µg/mL, the “Total Carbon” value (Klebsiella [1]; BNS 5 µg/mL) was 4,800 µg/mL and the “% Org. Carbon Removal” value (Klebsiella [1]; BNS 10 µg/mL) was “+11%”. The “Tot. Inorg. Carbon” value (Klebsiella [1]; BNS 10 µg/mL) was 12 µg/mL, the “Tot. Org. Carbon” value (Klebsiella [1]; BNS 10 µg/mL) was 3,888 µg/mL and the “Total Carbon” value (Klebsiella [1]; BNS 10 µg/mL) was 3,900 µg/mL. For the same compound, the “% Org. Carbon Removal” value (Klebsiella [1]; BNS 20 µg/mL) was “+19%”, the “Tot. Inorg. Carbon” value (Klebsiella [1]; BNS 20 µg/mL) was 9 µg/mL and the “Tot. Org. Carbon” value (Klebsiella [1]; BNS 20 µg/mL) was 4,191 µg/mL. The “Total Carbon” value (Klebsiella [1]; BNS 20 µg/mL) was 4,200 µg/mL, the “% Org. Carbon Removal” value (Klebsiella [1]; BNS 50 µg/mL) was “+31%” and the “Tot. Inorg. Carbon” value (Klebsiella [1]; BNS 50 µg/mL) was 7 µg/mL. The “Tot. Org. Carbon” value (Klebsiella [1]; BNS 50 µg/mL) was 4,593 µg/mL, the “Total Carbon” value (Klebsiella [1]; BNS 50 µg/mL) was 4,600 µg/mL and the “% Org. Carbon Removal” value (Klebsiella [1]; BNS 100 µg/mL) was “+102%”. The “Tot. Inorg. Carbon” value (Klebsiella [1]; BNS 100 µg/mL) was 7 µg/mL, the “Tot. Org. Carbon” value (Klebsiella [1]; BNS 100 µg/mL) was 7,093 µg/mL and the “Total Carbon” value (Klebsiella [1]; BNS 100 µg/mL) was 7,100 µg/mL. The “concentrations resulting in increases in TOC” value (Klebsiella [1]; nutrient broth, 5 hours) was at least 2 µg/mL, the “concentration for 99% inhibition of viability” value (Klebsiella [2]) was 10 to 20 µg/mL and the “concentrations at which cells retained viability equal to the control level” value (Klebsiella [2]) was “up to 2 µg/mL”. The “concentrations of significant toxicity” value (Klebsiella [2]) was 5 to 10 µg/mL and the “concentrations at which oxygen was consumed at levels approaching control values” (Klebsiella [3]) was “up to 2 ppm”.
